These results are taken from US20090306009A1, “Modulation of the P2Y2 Receptor Pathway” (P2-SCIENCE APS, priority 2005, published 2009).

In experiment [1] the test system is resting leg of healthy male subjects. Briefly: Leg haemodynamic responses to intrafemoral artery infusion of purinergic vasodilators alone and combined with tyramine. The experiment is classed as in vivo, human. To be noted: for effect on increased sympathetic vasoconstrictor activity evoked by tyramine: infusion in the resting leg; for leg blood flow (LBF) during vasodilator infusion: intrafemoral artery infusion of vasodilator alone, resting leg, rest about 0.5; for leg blood flow (LBF) during vasodilator infusion / leg a-v O2 difference during vasodilator infusion / leg blood flow (LBF) during combined vasodilator and tyramine infusion / leg a-v O2 difference during combined vasodilator and tyramine infusion: mean±S.E.M.; for leg vasoconstriction caused by tyramine during vasodilator infusion: tyramine added to the infusion of the named vasodilator; for leg a-v O2 difference during vasodilator infusion: vasodilator alone; for leg blood flow (LBF) during combined vasodilator and tyramine infusion: vasodilator plus tyramine about 13.2 μmol/min; for leg a-v O2 difference during combined vasodilator and tyramine infusion: vasodilator plus tyramine; for effect of tyramine on leg vascular conductance during vasodilator infusion / effect of tyramine on LBF during vasodilator infusion: tyramine added to vasodilator infusion; for effect of tyramine on LBF during vasodilator infusion: P=0.53. The method, then:
This study was performed in nine healthy male subjects from Denmark. The subjects were fully informed of any risks and discomforts associated with the experiments before giving their informed written consent to participate. The studies conformed to the code of Ethics of the World Medical Association (Declaration of Helsinki) and were approved by the Ethics Committee for Copenhagen and Frederiksberg communities.
Subjects reported to the laboratory at 8 a.m. or 1 p.m., following the ingestion of a light breakfast or lunch. Upon arrival, they rested in a supine position while three catheters were placed under local anaesthesia (1% lidocaine) into the femoral artery and vein of the right leg and in the femoral artery of the left leg using the Seldinger technique. The femoral artery and vein catheters were positioned 1-2 cm distal from the inguinal ligament. A thermistor (Edslab probe 94-0.3-2.5F) to measure venous blood temperature was inserted through the femoral venous catheter orientated in the anterograde direction for the determination of femoral venous blood flow. Femoral venous blood flow (an index of leg blood flow (LBF)) was determined by the constant infusion thermodilution technique (Andersen & Saltin, 1985 J Physiol. 366:233-49; González-Alonso et al. 2000 J Physiol. 524:603-15; Am J Physiol Heart Circ Physiol. 278(2):H321-30). LBF represents the average of two measurements made 1-2 min after the start of exercise and 1-2 min after the start of infusion of ATP, adenosine or tyramine. Arterial blood pressure was continuously monitored by a pressure transducer (Pressure Monitoring Kit, Baxter) at the level of inguinal region and calculated by integration of the pressure curve. Heart rate was determined from an electrocardiogram. All data were continuously recorded using a Powerlab system (ADInstruments, Sydney, Australia).
Leg blood flow (LBF) and mean arterial pressure (MAP) was measured during […] purinergically-induced hyperaemic conditions: (1) Intrafemoral artery infusion of adenosine (vasodilator control), (2) sequential intraarterial infusion of AMP, ADP, ATP or UTP (vasodilators), and (3), comparing the responses with the combined infusion with the vasoconstrictor drug tyramine, which evokes endogenous release of noradrenaline from sympathetic nerve endings.
Adenosine (Item Development AB, Stocksund, Sweden) was dissolved in isotonic saline (1.25 mg ml^−1) and infused at a rate of 16 μmol min^−1. AMP (Sigma) was dissolved in isotonic saline and infused at 71 μmol/min, ADP (Sigma) was dissolved in isotonic saline at […], ATP (Sigma) was dissolved in isotonic saline at 1 μmol/^min and UTP (Sigma) was dissolved in isotonic saline 1 μmol min^−1
95:2370-4; J Physiol. 547:971-6).
(§1) The combined infusion of adenosine and tyramine was to evoke a vasoconstrictor response in the resting leg of about 50%, without causing increases in arterial blood pressure, as previously documented in the Leg (Rosenmeier et al. 2004 J. Physiol. 558:351-365). Tyramine (Sigma T-2879) dissolved in isotonic saline (0.52 mg ml-1) was infused at a rate of about 13.2 μmol/min through all the tyramine trials.
The subjects first received separate infusions of adenosine, AMP, ADP, ATP or UTP for 4 min followed by combined infusions of vasodilator and tyramine for an additional 4 min.
Plasma noradrenaline and adrenaline concentrations were determined with high performance liquid chromatography with electrochemical detection (Hallman et al. 1978 Life Sci. 23(10):1049-52). Arterial and femoral haemoglobin concentration and O2 saturation were determined spectrophotometrically (OSM-3 Hemoximeter, Radiometer). PO2 was determined with the Astrup technique (ABL 5, Radiometer, Copenhagen, Denmark).
Leg vascular conductance was calculated as the quotient between LBF and mean arterial pressure. Leg O2 delivery was calculated by multiplying LBF by arterial O2 content. […]

Experiment [2] concerns leg blood flow. To be noted: previously registered, Rosenmeier et al. 2004; cited from earlier work.
Experiment [3] deals with leg blood flow. Kind of experiment: Maximal nucleotide-induced vasodilatation at rest relative to peak LBF during maximal bicycling exercise. In kind it is in vivo, human. From the text: Maximal UTP-induced vasodilatation was investigated at rest accounted for […] of the peak LBF during maximal bicycling exercise in comparison to the 78% increase in LBF previously registered for ATP (Rosenmeier et al. 2004 J. Physiol. 558:351-365).

The next experiment concerns resting leg. Briefly: Tyramine infusion alone in the resting leg (separate studies). The experiment is classed as in vivo, human. Conditions: tyramine about 13.2 μmol/min, no vasodilator. The method, then: as §1
Setting [4] is: vasodilator alone versus combined with tyramine.

Entries after “also recorded” stand apart in the source; their conditions may differ. Where two headings read alike, the source gives them in different places.

For the compound `Nc1ncnc2c1ncn2[C@@H]1O[C@H](COP(=O)(O)OP(=O)(O)O)[C@@H](O)[C@H]1O` [ADP], in experiment [1], the “effect on increased sympathetic vasoconstrictor activity evoked by tyramine” value is on record as “does not; also recorded: substantial vasoconstrictor response”, the “leg blood flow (LBF) during vasodilator infusion” value was 3.34 ± 0.4 L/min, the “leg vasoconstriction caused by tyramine during vasodilator infusion” value (from here on “leg vasoconstriction caused”) was determined as 30% and the “leg a-v O2 difference during vasodilator infusion” value is given as 6.0+1 ml l^−1. Besides, the “leg blood flow (LBF) during combined vasodilator and tyramine infusion” value in experiment [1] stood at 2.3 ± 0.3 L/min. Further, the “leg VO2, vasodilator alone versus with tyramine” value in experiment [1] (setting [4]) was “statistically significantly different”.
`Nc1ncnc2c1ncn2[C@@H]1O[C@H](COP(=O)(O)O)[C@@H](O)[C@H]1O` [AMP]: in experiment [1], the “effect on increased sympathetic vasoconstrictor activity evoked by tyramine” value was “does not; also recorded: substantial vasoconstrictor response”, the “leg blood flow (LBF) during vasodilator infusion” value is 3.7 ± 0.4 L/min, the “leg vasoconstriction caused” value came to 53% and the “leg a-v O2 difference during vasodilator infusion” value is recorded as 4.5±0.5 ml l^−1. Moreover, in experiment [1], the “leg blood flow (LBF) during combined vasodilator and tyramine infusion” value amounted to 1.7 ± 0.2 L/min; the “leg a-v O2 difference during combined vasodilator and tyramine infusion” value worked out at 15.3±3.1 ml l^−1. The “change of leg a-v O2 difference on addition of tyramine” value (from here on “change of leg a-v O2 difference”) in experiment [1] (setting [4]) is “elevated”.
Consider `Nc1ncnc2c1ncn2[C@@H]1O[C@H](COP(=O)(O)OP(=O)(O)OP(=O)(O)O)[C@@H](O)[C@H]1O` [ATP], for which, in experiment [1], the “effect on increased sympathetic vasoconstrictor activity evoked by tyramine” value is given as “fully blunts”, the “leg vasoconstriction caused” value is recorded as 0%, the “effect of tyramine on leg vascular conductance during vasodilator infusion” value is given as “did not alter; also recorded: no reduction” and the “effect of tyramine on LBF during vasodilator infusion” value is given as “did not alter; also recorded: no reduction”. Further, in experiment [1], the “leg a-v O2 difference during vasodilator infusion” value is 7.9±1.7 ml l^−1; the “leg a-v O2 difference during combined vasodilator and tyramine infusion” value is 5.7±1.6 ml l^−1. In addition, the “change of leg a-v O2 difference” value in experiment [1] (setting [4]) is “Absolutely no change; also recorded: unchanged”. Besides, in the experiment on leg blood flow [2], the “maximal vasodilatation as share of peak LBF during maximal bicycling exercise” value is given as 78%.
For `O=c1ccn([C@@H]2O[C@H](COP(=O)(O)OP(=O)(O)OP(=O)(O)O)[C@@H](O)[C@H]2O)c(=O)[nH]1` [UTP], in experiment [1], the “effect on increased sympathetic vasoconstrictor activity evoked by tyramine” value is on record as “fully blunts”, the “leg vasoconstriction caused” value was found to be 0%, the “effect of tyramine on leg vascular conductance during vasodilator infusion” value is reported as “did not alter; also recorded: no reduction” and the “effect of tyramine on LBF during vasodilator infusion” value is reported as “did not alter; also recorded: no reduction”. Moreover, in experiment [1], the “leg a-v O2 difference during vasodilator infusion” value is given as 7.1±0.9 ml l^−1; the “leg a-v O2 difference during combined vasodilator and tyramine infusion” value turned out to be 7.1±1.5 ml l^−1. Also, the “change of leg a-v O2 difference” value in experiment [1] (setting [4]) is reported as “Absolutely no change; also recorded: unchanged”. For the same compound, the “maximal vasodilatation as share of peak LBF during maximal bicycling exercise” value in the experiment with leg blood flow [3] was found to be 50%.
As to `Nc1ncnc2c1ncn2[C@@H]1O[C@H](CO)[C@@H](O)[C@H]1O` [adenosine], in experiment [1], the “effect on increased sympathetic vasoconstrictor activity evoked by tyramine” value was “does not; also recorded: substantial vasoconstrictor response”, the “leg blood flow (LBF) during vasodilator infusion” value stood at 3.8 ± 0.3 L/min, the “leg vasoconstriction caused” value worked out at 56% and the “leg a-v O2 difference during vasodilator infusion” value turned out to be 7.7±0.5 ml l^−1. For the same compound, in experiment [1], the “leg blood flow (LBF) during combined vasodilator and tyramine infusion” value is 1.7 ± 0.2 L/min; the “leg a-v O2 difference during combined vasodilator and tyramine infusion” value is 26.0±2.2 ml l^−1. Moreover, the “change of leg a-v O2 difference” value in experiment [1] (setting [4]) is on record as “elevated”.
As to `NCCc1ccc(O)cc1` [tyramine], the “reduction of blood flow by tyramine infusion” value with resting leg came out at 44±3%.
